Literature values in patent US20210040357A1, “ELECTROCONDUCTIVE ADHESIVE COMPOSITION, CURED PRODUCT OF ELECTROCONDUCTIVE ADHESIVE, AND ELECTRONIC DEVICE” (TANAKA KIKINZOKU KOGYO K.K., priority 2018, published 2021).

| Acid dissociation constant pKa | SMILES |
| --- | --- |
| 4.64 | CC(C)C1=CC2=CC[C@@H]3[C@](C)(CCC[C@@]3(C)C(=O)O)[C@H]2CC1 [Abietic acid] |
| about 5.0 | CCCCCCCCCCCCCCCCCC(=O)O [Stearic acid] |
| about 5.0 | CCCCCCCC/C=C\CCCCCCCC(=O)O [oleic acid] |
